According to patent publication US7326682B2 (priority 1998, dated 2008):
Structures can show the parent of a compound that is named as a salt.

System: rat prostatic vas deferens

COC(=O)[C@@H]1[C@H]2C[C@H]3c4[nH]c5ccccc5c4CCN3C[C@@H]2CC[C@@H]1O [yohimbine, yohimbine hydrochloride]
effect on the evoked responses: no effect
